According to patent publication US5219740A, “Retroviral gene transfer into diploid fibroblasts for gene therapy” (Fred Hutchinson Cancer Research Center, priority 1987, dated 1993):

Assays:
[1] = system: HDF 1-85; experiment: Drug concentration needed for complete cell killing; type: cell-based, human; conditions: Newborn HDF 1-85, scored after 10 days
Experimental: (§1) Three drugs were tested for their ability to kill human diploid fibroblasts (HDF): the neomycin analogue G418, Hygromycin-B (Hygro), and Methotrexate (Mtx). Four HDF lines were isolated from skin biopsies of normal human donors: HDF 78-18, from a […] fetus; HDF 1-85, from newborn foreskin; HDF 79-81, from a person; and HDF 72-46, from a person. The four fibroblast lines were isolated using standard methods (Meth. Cell Biol. 219:255-276, 1980, hereby incorporated by reference) and were maintained in culture for 22 to 31 population doublings using Dulbecco-Vogt Modified Eagles Medium (D MEM) supplemented with 10% fetal bovine serum (FBS). NIH 3T3 immortalized mouse fibroblasts served as a control.
(§2) Cells were seeded at 10^4 per 3.5-cm dish in D MEM plus 10% FBS and drug, except for Mtx selection where 10% dialyzed FBS was used. Drug-resistant cells were scored after 10 days.

[2] = system: HDF 72-46; experiment: as above; type: cell-based, human; conditions: Adult HDF 72-46, scored after 10 days
Experimental: as §1, §2

[3] = system: HDF 78-18; experiment: as above; type: cell-based, human; conditions: for Drug Concentrations Needed For Complete Cell Killing: Fetal HDF 78-18, scored after 10 days
Experimental: as §1, §2

[4] = system: HDF 79-81; experiment: as above; type: cell-based, human; conditions: Adult HDF 79-81, scored after 10 days
Experimental: as §1, §2

[5] = system: NIH 3T3; experiment: as above; type: cell-based, mouse; conditions: for Drug Concentrations Needed For Complete Cell Killing: Mouse NIH 3T3, scored after 10 days
Experimental: as §1, §2

[6] = system: human diploid fibroblast cell lines; experiment: Drug killing, summary over HDF lines; type: cell-based
Experimental: as §1, §2

[7] = system: SF03 cells; experiment: Adenosine killing of ADA-deficient fibroblasts; type: cell-based, human
Excerpt: (§3) Referring to FIG. 5, the ADA vector LNSAL was made by inserting an ADA cDNA (Valerio, D., et al., Gene 31:147-153, 1984) linked to a SV40 early region enhancer/promoter downstream of the neo gene in N2. Helper-free virus was made by introduction of LNSAL into PA317 amphotropic retrovirus-packaging cells (ATCC No. CRL 9078), as described in Mol. Cell. Biol. 6:2895-2902, 1986, hereby incorporated by reference. […] Using either G418 or adenosine, the expression of either neo and the ADA gene was assayed in LNSAL-infected cells.

[8] = system: normal human diploid fibroblasts; experiment: Adenosine effect on normal fibroblasts; type: cell-based; conditions: 2 mM
Excerpt: as §3

CN(Cc1cnc2nc(N)nc(N)c2n1)c1ccc(C(=O)N[C@@H](CCC(=O)O)C(=O)O)cc1 [Mtx, Methotrexate]
Drug Concentrations Needed For Complete Cell Killing ([1]; 10% dialyzed FBS): > 1000 µM | Drug Concentrations Needed For Complete Cell Killing ([2]; 10% dialyzed FBS): > 1000 µM | Drug Concentrations Needed For Complete Cell Killing ([3]; 10% dialyzed FBS): > 1000 µM | colony formation at the highest concentration of Mtx used ([3]; HDF 78-18, viable cells remained after 15 days of selection): did not form colonies | Drug Concentrations Needed For Complete Cell Killing ([4]; 10% dialyzed FBS): > 10 µM | Drug Concentrations Needed For Complete Cell Killing ([5]; 10% dialyzed FBS): 0.1 µM | concentration that efficiently killed the cells ([5]; NIH 3T3 cells): 10^-7 M | colony formation at the highest concentration of Mtx used ([6]; all HDF lines with the exception of HDF 78-18): formed colonies | concentration to which the cell lines were resistant to killing ([6]; human diploid fibroblast cell lines): > 10^-5 M | concentration to which the cell lines were resistant to killing ([6]; most human diploid fibroblast cell lines): more than 10^-3 M

CNC1C(O)C(OC2C(N)CC(N)C(OC3OC(C(C)O)C(O)C(O)C3N)C2O)OCC1(C)O (centres unmarked) [Vector G418]
Drug Concentrations Needed For Complete Cell Killing ([1]; weight of dry powder): 500 µg/mL | Drug Concentrations Needed For Complete Cell Killing ([2]; weight of dry powder): 500 µg/mL | Drug Concentrations Needed For Complete Cell Killing ([3]; weight of dry powder): 500 µg/mL | Drug Concentrations Needed For Complete Cell Killing ([4]; weight of dry powder): 1000 µg/mL | Drug Concentrations Needed For Complete Cell Killing ([5]; weight of dry powder): 1000 µg/mL

Nc1ncnc2c1ncn2[C@@H]1O[C@H](CO)[C@@H](O)[C@H]1O [adenosine]
concentration that kills the cells [7]: 2 mM | effect on the cells [8]: no effect
